According to US8247349B2, “Enhanced abscisic acid analog and fertilizer performance” (Valent BioSciences Corporation, priority 2007, dated 2012):
Read-outs that look alike come from different tables or passages of the source.

Legend:
[1] = test system: tomato plant leaves; settings: in vivo
[2] = test system: tomato leaf transpiration; experiment: Tomato leaf transpiration inhibition after foliar application (LI-1600 Steady State Porometer); type: in vivo, Tomato (variety: Rutgers)
[3] = test system: tomato plant leaves; experiment: Phytotoxicity study: number of injured leaves after foliar application; settings: for Number of injured leaves: 25 ppm ABA analog alone, one foliar application; for Phytotoxicity (in words): 25 ppm alone, 10-day experimental period

Structure (SMILES): N.N.O=S(=O)(O)O [(NH4)2SO4, ammonium sulfate]
- Phytotoxicity (in words) [1]: showed phytotoxicity

Structure (SMILES): C#CC1(C)CC(=O)C=C(C)C1(O)/C=C/C(C)=C\C(=O)OC (centres unmarked) [PBI-429, 8′ acetylene-ABA methyl ester]
- Transpiration rate (% of control) ([2]; 25 ppm alone, 1 day after treatment): 60 % of control
- Transpiration rate (% of control) ([2]; 25 ppm alone, 2 days after treatment): 42 % of control
- Transpiration rate (% of control) ([2]; 25 ppm alone, 3 days after treatment): 64 % of control
- Transpiration rate (% of control) ([2]; 25 ppm alone, 4 days after treatment): 63 % of control
- Transpiration rate (% of control) ([2]; 25 ppm alone, 7 days after treatment): 87 % of control
- Transpiration rate (% of control), Average ([2]; 25 ppm alone, average over days 1-7): 63 % of control
- Number of injured leaves ([3]; 5 days after treatment): 0.0
- Number of injured leaves ([3]; 10 days after treatment): 0.0
- Phytotoxicity (in words) [3]: did not show any phytotoxicity

Structure (SMILES): C#CC1(C)CC(=O)C=C(C)C1(O)C=CC(C)=CC(=O)O (centres unmarked) [PBI-524, 8′ acetylene-ABA, acid]
- Number of injured leaves ([3]; 5 days after treatment): 0.0
- Number of injured leaves ([3]; 10 days after treatment): 0.0
- Phytotoxicity (in words) [3]: did not show any phytotoxicity

Structure (SMILES): NC(N)=O [Urea, urea]
- Transpiration rate (% of control) ([2]; 1 mM alone, 1 day after treatment): 103 % of control
- Transpiration rate (% of control) ([2]; 1 mM alone, 2 days after treatment): 98 % of control
- Transpiration rate (% of control) ([2]; 1 mM alone, 3 days after treatment): 98 % of control
- Transpiration rate (% of control) ([2]; 1 mM alone, 4 days after treatment): 100 % of control
- Transpiration rate (% of control) ([2]; 10 mM alone, 1 day after treatment): 101 % of control
- Transpiration rate (% of control) ([2]; 10 mM alone, 2 days after treatment): 103 % of control
- Transpiration rate (% of control) ([2]; 10 mM alone, 3 days after treatment): 106 % of control
- Transpiration rate (% of control) ([2]; 10 mM alone, 4 days after treatment): 101 % of control
- Transpiration rate (% of control) ([2]; 100 mM alone, 1 day after treatment): 102 % of control
- Transpiration rate (% of control) ([2]; 100 mM alone, 2 days after treatment): 102 % of control
- Transpiration rate (% of control) ([2]; 100 mM alone, 3 days after treatment): 107 % of control
- Transpiration rate (% of control) ([2]; 100 mM alone, 4 days after treatment): 102 % of control
- Effect on tomato leaf transpiration (in words) ([2]; 1, 10 or 100 mM alone, 4-day experimental period): Neither urea nor ammonium nitrate at any of three tested concentrations significantly reduced tomato leaf transpiration
